The results in this text go back to article PMC8151276, “An Integrated Approach toward NanoBRET Tracers for Analysis of GPCR Ligand Engagement” (Molecules, 2021).

Assay type in all cases: binding
One test deals with T1, OXTR (Homo sapiens, UniProt P30559).
T1 construct: purchased Promega (in-house HiBiT-GPCR construct library, NanoBRET)
T1 sequence (P30559 1-389): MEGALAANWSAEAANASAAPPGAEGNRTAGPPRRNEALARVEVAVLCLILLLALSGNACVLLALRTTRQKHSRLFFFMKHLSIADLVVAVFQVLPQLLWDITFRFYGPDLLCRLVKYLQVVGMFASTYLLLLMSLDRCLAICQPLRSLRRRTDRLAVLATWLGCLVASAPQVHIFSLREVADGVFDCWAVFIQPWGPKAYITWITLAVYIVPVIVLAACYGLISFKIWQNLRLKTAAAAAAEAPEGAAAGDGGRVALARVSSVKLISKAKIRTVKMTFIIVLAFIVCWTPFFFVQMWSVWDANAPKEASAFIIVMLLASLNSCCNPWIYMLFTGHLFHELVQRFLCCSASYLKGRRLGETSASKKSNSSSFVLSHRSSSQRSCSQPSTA
In words: NanoBRET screen HiBiT-OXTR in HEK293. As for the experimental part:
(§1) Each tracer candidate was screened across the entire library of HiBiT-GPCR constructs using NanoBRET as the detection modality. As depicted in Figure 4A, the specificity of interactions was evaluated through decrease in BRET due to competitive displacement of a bound tracer by excess parental compound. Each tracer was analyzed for binding to each HiBiT-GPCR fusion in the absence and in the presence of competing parental compound. Briefly, HEK293 cells were transfected with HiBiT-GPCR constructs diluted into promoterless DNA to reduce expression and maximize translocation to the cell surface. Each tracer candidate was then screened at concentrations of 1 μM and 0.1 μM across cells expressing these fusions. Cells were treated for 1.5 h with tracer either alone or in the presence of 20 μM competing parental compound (i.e., control). BRET was measured upon addition of purified LgBiT and subsequent complementation with HiBiT genetically fused to a GPCR. The specificity of interactions was assessed through a decrease in BRET signal due to competitive displacement of the bound tracer. To further gauge the robustness of these interactions, the fold response over the control (i.e., BRETtracer/BRETcontrol) was calculated. We chose a 1.5-fold response, which translates to ≥7-fold signal over noise as the minimal threshold required to score an interaction as positive. […]. Below we highlight the screening results obtained for our exemplary fluorescent tracers based on Clozapine, Amitriptyline and AZD1283.
(§2) HiBiT-GPCR DNA constructs were diluted in 10 mM Tris pH 8 to a final concentration of 0.01 μg/μL, arrayed in 96-well plates and stored at −20 °C. For transfection, HEK293 cells were suspended in Opti-MEM (without phenol red) supplemented with 2% fetal bovine serum (Seradigm) and 100 units/mL penicillin–streptomycin (Gibco) at a final concentration of 220,000 cells/mL and dispensed into white 96-well plates at 90 μL/well. Subsequent transfections and screens were carried using an Agilent Bravo Automated Liquid Handling Platform. First, the 96-well HiBiT DNA arrays were diluted 25-fold in Opti-MEM (without serum or phenol red) to a final concentration of 0.0004 μg/μL and 20 μL of the diluted DNAs were transferred into new 96-well plates. Next, promoterless carrier DNA (1 μg/μL) was diluted 25-fold (0.04 μg/μL) and then dispensed into the diluted arrays at 20 μL/well. Following brief mixing, Viafect transfection reagent (Promega) diluted 16-fold into Opti-MEM was dispensed into the plates at 40 μL/well. After mixing by pipetting, plates were incubated for 10 min on the pipetting station deck. The DNA-transfection reagent complexes were then added to plates containing cells. To facilitate the screen, 10 μL of DNA-transfection reagent complexes were added in duplicates to the top 4 and bottom 4 rows, resulting in two identical 48-well arrays per plate. Plates with transfected cells were incubated for 18–20 h at 37 °C/5% CO2. A screen of each tracer across the entire library using two different concentrations requires duplicate plates of transfected cells. Depending on the number of tracers being screened, transfections can be scaled up using the same ratios. The next day, for each tracer, four 20× screening solutions in tracer dilution buffer (Promega) were prepared: two duplicates at final concentration of 20 μM and two duplicates at a final concentration of 2 μM. A competing unmodified compound was added to one of each duplicate at a final concentration of 400 μM. The four resulting solutions were diluted 4-fold in Opti-MEM without serum or phenol red to generate 5× solutions (5 µM and 0.5 µM tracer +/− 100 μM competing compound). To screen the library, a BioTek MultiFlo FX liquid dispenser was used to dispense 22.5 µL of tracer solution to the top 4 rows and 22.5 µL tracer + competing compound solution to the 4 bottom rows. Plates were briefly mixed on an orbital shaker and incubated for 1.5 h at room temperature. […]

A further test has as its target T2, PTGIR (Homo sapiens, UniProt P43119).
T2 construct: purchased Promega (in-house HiBiT-GPCR construct library, NanoBRET)
As to the kind of experiment: NanoBRET screen HiBiT-PTGIR in HEK293. The settings on record: PTGIR. Here is the method:
as §1, §2

Another test concerns the target T3, GRM4 (Homo sapiens, UniProt Q14833).
T3 construct: purchased Promega (in-house HiBiT-GPCR construct library, NanoBRET)
As to the kind of experiment: NanoBRET screen HiBiT-GRM4 in HEK293. Particulars: GRM4. As for the experimental part: as §1, §2

T2 sequence (P43119 whole entry): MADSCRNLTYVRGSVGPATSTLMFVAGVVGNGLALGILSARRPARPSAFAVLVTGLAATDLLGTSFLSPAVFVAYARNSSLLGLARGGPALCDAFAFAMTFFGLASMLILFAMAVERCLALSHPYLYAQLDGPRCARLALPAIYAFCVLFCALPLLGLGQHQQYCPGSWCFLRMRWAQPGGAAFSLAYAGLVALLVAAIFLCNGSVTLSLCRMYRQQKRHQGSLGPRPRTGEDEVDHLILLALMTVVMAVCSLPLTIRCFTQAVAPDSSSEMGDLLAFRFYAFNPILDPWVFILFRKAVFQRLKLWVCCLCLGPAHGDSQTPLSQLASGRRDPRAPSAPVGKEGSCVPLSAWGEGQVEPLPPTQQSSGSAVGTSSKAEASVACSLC
T3 sequence (Q14833 33-912): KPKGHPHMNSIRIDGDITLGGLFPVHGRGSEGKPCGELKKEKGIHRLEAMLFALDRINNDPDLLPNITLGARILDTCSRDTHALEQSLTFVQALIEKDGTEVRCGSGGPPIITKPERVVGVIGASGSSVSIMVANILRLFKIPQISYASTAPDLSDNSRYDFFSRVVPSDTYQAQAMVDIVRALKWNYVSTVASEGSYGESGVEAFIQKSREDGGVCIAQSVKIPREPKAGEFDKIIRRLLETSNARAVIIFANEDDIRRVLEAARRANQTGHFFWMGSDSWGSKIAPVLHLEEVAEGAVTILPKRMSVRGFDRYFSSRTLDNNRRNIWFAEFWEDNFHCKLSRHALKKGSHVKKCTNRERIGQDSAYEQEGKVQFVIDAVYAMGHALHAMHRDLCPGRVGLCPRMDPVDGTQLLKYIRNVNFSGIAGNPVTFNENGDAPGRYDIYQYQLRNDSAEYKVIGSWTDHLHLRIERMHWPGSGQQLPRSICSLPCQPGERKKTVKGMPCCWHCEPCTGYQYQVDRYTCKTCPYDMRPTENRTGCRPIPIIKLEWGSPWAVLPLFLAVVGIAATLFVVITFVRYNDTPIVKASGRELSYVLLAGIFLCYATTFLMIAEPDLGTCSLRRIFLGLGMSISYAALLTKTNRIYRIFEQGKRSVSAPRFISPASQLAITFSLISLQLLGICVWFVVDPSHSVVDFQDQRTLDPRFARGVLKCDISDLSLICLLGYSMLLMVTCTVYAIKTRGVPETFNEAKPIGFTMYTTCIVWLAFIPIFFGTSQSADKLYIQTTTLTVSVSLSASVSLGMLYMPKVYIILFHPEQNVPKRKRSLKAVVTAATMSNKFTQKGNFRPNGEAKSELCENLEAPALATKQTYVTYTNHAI

Consider `O=C(CCc1ccc2n1[B-](F)(F)[N+]1=C(c3ccc[nH]3)C=CC1=C2)NCCOCCOCCNC(=O)OCCOCCN1CCN(C2=Nc3ccccc3Sc3ccccc32)CC1` [Quetiapine-a-2-NB590], for which the “NanoBRET Fold Response” value on OXTR (OXTR, tracer 0.1μM) was 1.10; at OXTR (OXTR, tracer 1μM), 0.82; at PTGIR (tracer 0.1μM) it was 1.03; at PTGIR (tracer 1μM) it was 0.94; at GRM4 (tracer 0.1μM) it was 0.99; at GRM4 (tracer 1μM) it was 0.92.

In the case of `CN1CCN(C2=Nc3cc(Cl)ccc3Nc3ccc(CNC(=O)CCOCCOCCOCCOCCNC(=O)CCc4ccc5n4[B-](F)(F)[N+]4=C(c6ccc[nH]6)C=CC4=C5)cc32)CC1` [Clozapine-b-2-NB590], the “NanoBRET Fold Response” value is on record as 1.05 on OXTR (OXTR, 0.1μM tracer); 1.03 at OXTR (OXTR, 1μM tracer); 0.98 at PTGIR (0.1μM tracer); 1.00 at PTGIR (1μM tracer); 1.05 at GRM4 (0.1μM tracer); 1.03 on GRM4 (1μM tracer).

As to `CC(C)N(CC[C@H](c1ccccc1)c1cc(CCNC(=O)CCOCCOCCOCCOCCNC(=O)CCc2ccc3n2[B-](F)(F)[N+]2=C(c4ccc[nH]4)C=CC2=C3)ccc1O)C(C)C` [Tolterodine-2-NB590], the “NanoBRET Fold Response” value at OXTR (OXTR, tracer 0.1μM) is recorded as 0.97; on OXTR (OXTR, tracer 1μM), 0.94; at PTGIR (tracer 0.1μM), 1.07; on PTGIR (tracer 1μM), 1.12; on GRM4 (tracer 0.1μM) it was 0.97; on GRM4 (tracer 1μM) it was 1.14.

As to `Cc1cc2c(s1)Nc1ccccc1N=C2N1CCN(CCCNC(=O)CCOCCOCCOCCOCCNC(=O)CCc2ccc3n2[B-](F)(F)[N+]2=C(c4ccc[nH]4)C=CC2=C3)CC1` [Olanzapine-a-2-NB590], the “NanoBRET Fold Response” value at OXTR (OXTR, tracer 0.1μM) is 1.00; on OXTR (OXTR, tracer 1μM), 0.96; on PTGIR (tracer 0.1μM) it was 0.99; on PTGIR (tracer 1μM), 0.98; on GRM4 (tracer 0.1μM) it was 0.99; at GRM4 (tracer 1μM), 0.93.

With `N#CN=C(NCCCOc1cccc(CN2CCCCC2)c1)NCCNC(=O)CCOCCOCCOCCOCCNC(=O)CCc1ccc2n1[B-](F)(F)[N+]1=C(c3ccc[nH]3)C=CC1=C2` [Aminopotentidine-2-NB590], the “NanoBRET Fold Response” value on OXTR (OXTR, tracer 0.1μM) came to 1.06; on OXTR (OXTR, tracer 1μM) it was 1.04; on PTGIR (tracer 0.1μM) it was 1.03; at PTGIR (tracer 1μM), 1.03; on GRM4 (tracer 0.1μM), 1.02; at GRM4 (tracer 1μM), 1.01.

For `Cc1nc2n(c(=O)c1CCN1CCC(c3noc4cc(F)ccc34)CC1)CCCC2OC(=O)NCCOCCOCCOCCOCCNC(=O)CCc1ccc2n1[B-](F)(F)[N+]1=C(c3ccc[nH]3)C=CC1=C2` (stereo not drawn) [Risperidone-2-NB590], the “NanoBRET Fold Response” value at OXTR (OXTR, tracer 0.1μM) worked out at 0.97; on OXTR (OXTR, tracer 1μM), 0.97; on PTGIR (tracer 0.1μM), 1.02; on PTGIR (tracer 1μM) it was 1.01; at GRM4 (tracer 0.1μM), 0.98; on GRM4 (tracer 1μM), 1.05.

For the compound `CN(C)CCC=C1c2ccccc2CCc2ccc(C(=O)NCCNC(=O)CCOCCOCCOCCOCCNC(=O)CCc3ccc4n3[B-](F)(F)[N+]3=C(c5ccc[nH]5)C=CC3=C4)cc21` [Amitriptyline-b-2-NB590], the “NanoBRET Fold Response” value worked out at 1.08 on OXTR (tracer at 0.1μM, listed as amitriptyline-b-2-NB590); 1.01 on OXTR (tracer at 1μM, listed as amitriptyline-b-2-NB590); 0.99 at PTGIR (tracer 0.1μM); 0.98 on PTGIR (tracer 1μM); 0.96 on GRM4 (tracer 0.1μM); 0.95 at GRM4 (tracer 1μM).
